Data from PMC7618597, “Dual Nurr1/RXR agonism of valerenic acid and synthetic mimetics enables dimer-selective Nurr1 modulation” (ACS medicinal chemistry letters, 2025).
Values joined by “and” are separate entries in the source; they are usually repeats but may differ in a detail not shown here. Identical values can stand only once.

Columns and labels:
[1] = target: Nurr1:RXR heterodimer (Homo sapiens, UniProt P19793+P43354); assay: Nurr1 LBD:RXRα LBD heterodimerization assay (HTRF); assay type: biochemical; details: 30 μM, Tb3+-cryptate Nurr1 LBD and sGFP-RXRα LBD
Chain of Nurr1:RXR heterodimer (P43354 360-595 limits assumed): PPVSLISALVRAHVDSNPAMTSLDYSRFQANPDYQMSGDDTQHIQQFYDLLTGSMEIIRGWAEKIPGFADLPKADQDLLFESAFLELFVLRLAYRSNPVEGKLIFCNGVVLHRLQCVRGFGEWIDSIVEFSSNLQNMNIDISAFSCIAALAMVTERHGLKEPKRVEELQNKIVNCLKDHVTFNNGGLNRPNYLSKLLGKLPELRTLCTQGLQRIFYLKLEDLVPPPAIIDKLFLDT
Chain of Nurr1:RXR heterodimer (P19793 227-458 limits assumed): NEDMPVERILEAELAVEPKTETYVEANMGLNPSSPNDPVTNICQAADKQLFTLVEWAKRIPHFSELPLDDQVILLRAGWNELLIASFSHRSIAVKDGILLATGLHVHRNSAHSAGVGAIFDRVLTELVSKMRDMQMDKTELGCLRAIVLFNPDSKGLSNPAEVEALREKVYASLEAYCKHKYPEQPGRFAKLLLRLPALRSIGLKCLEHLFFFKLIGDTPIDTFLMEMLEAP
Method: To determine the molecular response of the Nurr1:RXR heterodimer on dual agonist binding, we employed homogenous time-resolved fluorescence resonance energy transfer (HTRF) based assays with labeled Nurr1 and RXR LBD proteins. Tb^3+-cryptate as streptavidin conjugate served as FRET donor and was coupled to biotinylated proteins. sGFP fusion proteins of the receptors of interest were used as FRET acceptors. Ligand effects on dimer formation were determined by titrating the sGFP-labeled dimer partner with a fixed concentration of the Tb^3+-labeled counterpart. […] The same effect was also observable for the natural product 1 (Figure S3).
Nurr1 dimerization assays (HTRF). Modulation of Nurr1 LBD homodimerization and heterodimerization of the LDBs of Nurr1 and RXRα was investigated by HTRF as reported previously4. Nurr1 LBD or RXRα LBD proteins labeled with sGFP were titrated against a fixed concentration of Tb3+-cryptate as streptavidin conjugate (Tb-SA) (610SATLF, Revvity) coupled to biotinylated Nurr1 LBD protein in the presence of test compounds at 30 µM or absence of compound as a negative control (apo). Assay solutions were prepared in buffer containing 25 mM HEPES pH 7.5, 150 mM KF, 5% (m/v) glycerol, 5 mM DTT, 0.1% (m/v) CHAPS and 1%
DMSO. The FRET donor complex was formed from biotinylated Nurr1 LBD (final concentration 0.188 nM) and Tb-SA (0.375 nM) and was kept constant. For the homodimerization assay, the FRET acceptor consisted of sGFP-Nurr1 LBD, which was titrated from 0.5 µM, while free sGFP was added to keep the total GFP content stable at 0.5 µM. […] Samples were equilibrated at room temperature for 2 h and fluorescence intensities (FI) after excitation at 340 nm were recorded at 520 nm for sGFP acceptor fluorescence and at 620 for Tb-SA donor fluorescence on a SPARK plate reader (Tecan Group Ltd.). […]
Evaluation of Nurr1-regulated gene expression. […] RNA concentration and purity were assessed using a NanoDrop One UV-vis spectrophotometer (Thermo Fisher Scientific) at 260/280 nm. […]

[2] = target: T1, Nurr1 (Homo sapiens, UniProt P43354); assay: Gal4-hybrid reporter gene assay, Nurr1; assay type: cell-based; details: Gal4-hybrid reporter gene assay; for max. act. (Nurr1): max. fold activation; for EC50: mean±S.E.M., n≥3
T1 construct: pFA-CMV-hNurr1-LBD; expressed in transfected cells; host or cells: HEK293T
T1 sequence (P43354 360-595 limits assumed): as the sequence (P43354 360-595 limits assumed) above
Method: modified Eagle’s medium (DMEM), high glucose supplemented with 10% fetal calf serum (FCS), sodium pyruvate (1 mM), penicillin (100 U/mL), and streptomycin (100 μg/mL) at 37 °C and 5% CO2 and seeded in 96-well plates (3×10^4 cells/well). After 24 h, the medium was changed to Opti-MEM without supplements, and the cells were transiently transfected using Lipofectamine LTX reagent (Invitrogen) according to the manufacturer’s protocol. Five hours after transfection, the cells were incubated with the test compounds in Opti-MEM supplemented with penicillin (100 U/mL), streptomycin (100 μg/mL), and 0.1% DMSO for 15 h before luciferase activity was measured using the Dual -Glo Luciferase Assay System (Promega) according to the manufacturer’s protocol on a Tecan Spark l uminometer (Tecan Deutschland GmbH, Germany). Firefly luminescence was divided by Renilla luminescence and multiplied by 1000, resulting in relative light units (RLU) to normalize for transfection efficiency and cell growth. Fold activation was obtained by dividing the mean RLU of a sample by the mean RLU of the untreated control. All samples were tested in at least three biologically independent experiments in duplicates. For dose –response curve fitting and calculation of EC50 values, the equation “[Agonist] vs. response – Variable slope (four parameters)” was used in GraphPad Prism (version 5.04, GraphPad Software, La Jolla, CA, USA). […] (10 μM, NR4A) and bexarotene (1 µM, NR2B) served as the positive control. […]
150 μM in the same buffer containing 2-4% DMSO) in 21–26 injections (1 × 1 μL and 20 × 4 to 25 × 4 μL) with an injection interval of 120 s. As control experiments, the test compounds were titrated to the buffer, and the buffer was titrated to the protein under otherwise identical conditions. The heat rates of the compound-Nurr1 LBD titrations were analyzed using NanoAnalyze software (TA Instruments, New Castle, DE) with an independent binding model.

Row | Compound | Nurr1:RXR heterodimer formation [1] | max. act. (Nurr1) [2] | EC50 [2] [nM]
1 | Cc1c2c(n(-c3ccc(CC(=O)O)cc3)c1C)CCC(F)(F)C2 [compound 2] | left the dimer intact | 3.3 fold and 3.3±0.1 fold | 2600 ± 400
2 | Cc1c(C)n(-c2ccc(CC(=O)O)cc2)c2ccc(F)cc12 [compound 3] | left the dimer intact | 4.3±0.5 fold | 2200 ± 900
